Structures can show the parent of a compound that is named as a salt.
system: Acinetobacter baumannii ATCC17961; assay: Antimicrobial susceptibility testing: 90% growth inhibitory concentration (IC90) determination in Iso-Sensitest broth, OD600 growth; type: cell-based; conditions: Acinetobacter baumannii, ATCC17961, 16 h, read-out: A. baumannii ATCC 17961 IC90 (uM), strain ATCC 17961, OD600 growth over 16 h
How it was run: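 Growth monitored at 600 nm every 20 min for 16 h at 35±2 °C, inoculum ~5×10^(5) CFU/ml in Iso-Sensitest medium. Compounds in 10-point twofold series, e.g. 50 to 0.097 μM final; 90% inhibitory concentration taken from log-phase growth.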

Structure (SMILES) | IC90
Cc1cc(Nc2nccn3c(-c4cn(C)nc4C(F)(F)F)cnc23)ccc1C(=O)N1CCN(C(=O)[C@@H]2CCNC[C@H]2O)CC1 [Example 477, formic acid; [4-[(3S,4R)-3-hydroxypiperidine-4-carbonyl]piperazin-1-yl]-[2-methyl-4-[[3-[1-methyl-3-(trifluoromethyl)pyrazol-4-yl]imidazo[1,2-a]pyrazin-8-yl]amino]phenyl]methanone] | 3.24 µM
CCc1cc(Nc2nccn3c(-c4cn(CC(F)F)nc4C(F)(F)F)cnc23)ccc1C(=O)NCC(=O)N1CCC(N)CC1 [Example 666, N-[2-(4-amino-1-piperidyl)-2-oxo-ethyl]-4-[[3-[1-(2,2-difluoroethyl)-3-(trifluoromethyl)pyrazol-4-yl]imidazo[1,2-a]pyrazin-8-yl]amino]-2-ethyl-benzamide formate] | 0.291 µM

same assay, conditions: Acinetobacter baumannii, ATCC17961, 16 h, strain ATCC 17961, OD600 growth over 16 h, read-out: A. baumannii ATCC 17961 IC90

Structure (SMILES) | IC90
N#CCn1cc(-c2cnc3c(Nc4ccc(C(=O)N[C@H]5[C@@H]6CN(C(=O)N[C@@H]7CNC[C@H]7O)C[C@@H]65)c(Cl)c4)nccn23)c(C(F)(F)F)n1 [Example 825, (1s,5r)-6-[[2-chloro-4-[[3-[1-(cyanomethyl)-3-(trifluoromethyl)pyrazol-4-yl]imidazo[1,2-α]pyrazin-8-yl]amino]benzoyl]amino]-N-[(3R,4R)-4 hydroxypyrrolidin-3-yl]-3-azabicyclo[3.1.0]hexane-3-carboxamide formic acid salt] | 0.11 µM
N#CCn1cc(-c2cnc3c(Nc4ccc(C(=O)N5CCC(NC(=O)C6CCNCC6)CC5)c(Cl)c4)nccn23)c(C(F)(F)F)n1 [Example 142, N-[1-[2-chloro-4-[[3-[1-(cyanomethyl)-3-(trifluoromethyl)pyrazol-4-yl]imidazo[1,2-a]pyrazin-8-yl]amino]benzoyl]piperidin-4-yl]piperidine-4-carboxamide] | 0.554 µM
CCc1cc(Nc2nccn3c(-c4cn(CC(F)F)nc4C#N)cnc23)ccc1C(=O)NCCOCCN [Example 832, N-(2-(2-aminoethoxy)ethyl)-4-((3-(3-cyano-1-(2,2-difluoroethyl)-1H-pyrazol-4-yl)imidazo[1,2-α]pyrazin-8-yl)amino)-2-ethylbenzamide] | 0.48 µM
CCc1cc(Nc2nccn3c(-c4c[nH]nc4C(F)(F)F)cnc23)ccc1C(=O)NCCNC(=O)[C@@H]1CCCN1 [Example 39, (2S)-N-[2-[[2-ethyl-4-[[3-[3-(trifluoromethyl)-1H-pyrazol-4-yl]imidazo[1,2-a]pyrazin-8-yl]amino]benzoyl]amino]ethyl] pyrrolidine-2-carboxamide] | 0.47 µM
Cc1cc(Nc2nccn3c(-c4c[nH]nc4C(F)(F)F)cnc23)ccc1C(=O)N1CCN(C(=O)[C@H](C)N)CC1 [Example 331, (2S)-2-amino-1-[4-[2-methyl-4-[[3-[3-(trifluoromethyl)-1H-pyrazol-4-yl]imidazo[1,2-a]pyrazin-8-yl]amino]benzoyl]piperazin-1-yl]propan-1-one] | 0.401 µM
CCc1cc(Nc2nccn3c(-c4cn(C(C)C#N)nc4C(F)(F)F)cnc23)ccc1C(=O)NCCOCCN1CCOCC1 (stereo not shown) [Example 745, 4-((3-(1-(1-cyanoethyl)-3-(trifluoromethyl)-1H-pyrazol-4-yl)imidazo[1,2-a]pyrazin-8-yl)amino)-2-ethyl-N-(2-(2-morpholinoethoxy)ethyl) benzamide formate] | 0.569 µM
CCc1cc(Nc2nccn3c(-c4c[nH]nc4C(F)(F)F)cnc23)ccc1C(=O)NCCNC(=O)[C@H]1C[C@@H](N)C1 [Example 740, N-(2-((1s,3s)-3-aminocyclobutane-1-carboxamido)ethyl)-2-ethyl-4-((3-(3-(trifluoromethyl)-1H-pyrazol-4-yl)imidazo[1,2-a]pyrazin-8-yl)amino)benzamide] | 0.529 µM

same assay, conditions: strain ATCC 17961, OD600 growth over 16 h, read-out: A. baumannii ATCC 17961 IC90

Structure (SMILES) | IC90
C#CCNCCCNC(=O)c1c(C)cc(Nc2nccn3c(-c4cn(CC=C)nc4C(F)(F)F)cnc23)cc1F [Example 66, 2-fluoro-6-methyl-4-[[3-[1-prop-2-enyl-3-(trifluoromethyl)pyrazol-4-yl]imidazo[1,2-a]pyrazin-8-yl]amino]-N-[3-(prop-2-ynylamino)propyl] benzamide] | 0.379 µM

— patent US20230203043A1, “NOVEL IMIDAZOPYRAZINE DERIVATIVES” (Hoffmann-La Roche Inc., priority 2020, published 2023)
